According to patent US11787781B2, “Inhibiting ataxia telangiectasia and RAD3-related protein (ATR)” (Celator Pharmaceuticals, Inc., priority 2016, dated 2023):

Tests used:
pKa = format: physicochemical; details: method not stated
[1] = Loading of ATR inhibitors into TEA-SOS liposomes and liposome characterization; format: physicochemical; details: for Loading efficiency (%) / Drug/lipid ratio after loading: TEA-SOS liposomes; for Loading efficiency (%): Compound 1 at ratio before loading 379; for Drug/lipid ratio after loading: input ratio before loading (Compound 1: 379); for Liposome size, (mean ± SD) nm: liposomes loaded with the ATR inhibitor
Experimental: Sodium sucrose octasulfate (equivalent weight 144.8) is a sodium salt of sucrose derivate in which all hydroxyl groups have formed sulfuric acid esters. Sixty gram of sucrose octasulfate (SOS) sodium salt were dissolved in 150 ml of di water, heated with shaking (swirling) of a 50° C. water bath. The solution was passed through a column packed with sulfonated polystyrene divinylbenzene copolymer cation exchange resin beads (Dowex 50Wx8-100-200 mesh, Dow Chemical Co.). […] The eluent was monitored using a conductivity detector. The SOS fraction was collected corresponding to conductivity peak and immediately titrated with neat triethylamine (TEA) solution to pH 6-6.5. The solution was analyzed for residual sodium by potentiometry using a sodium-sensitive electrode and for SOS concentration using a refractometer. The solution having residual sodium less than 0.25% was diluted with di water to final SOS concentration 1.1 M and then sterile-filtered using Millipore 0.22 μm Steri-Top filter.
Cholesterol (Chol) was purchased from Avanti Polar Lipids, Alabaster, Ala., USA, hydrogenated soy phosphocholine (HSPC) and methoxy-poly(ethylene glycol)-1,2-distearoyl-sn-glyceryl (PEG2000-DSG) were obtained from Lipoid GmbH, Ludwigshafen, Germany.
Chol, HSPC and PEG2000-DSG were co-dissolved in 100% ethanol (200-proof, Sigma cat #: 459828) at a molar ratio of 3:2:0.15 at 65° C. The solution of TEA-SOS (10 times the volume of added ethanol) was mixed with the lipid solution at 60-65° C. and stirred at this temperature until a homogeneous milky suspension of multilamellar vesicles was formed. This suspension was extruded 3 times through 5 stacked polycarbonate track-etched filters (Corning Nuclepore) with the pore size of 100 nm using argon pressure extruder (Lipex Biomembranes) at 60-65° C., and resulting unilamellar liposomes were quickly chilled in ice and then stored at 4-6° C. before use. Concentration of phospholipids was measured by phosphate assay and particle diameter was recorded on a Malvern Nanosizer.
Prior to drug loading, the TEA-SOS gradient was created by removing excess of un-trapped TEA-SOS using gel-chromatography (Sepharose CL-4B, Pharmacia). Osmolarity of liposomes was balanced using 50% dextrose solution. Final dextrose concentration was 15%.
ATR inhibitors were dissolved in 15% dextrose solutions in di water by titration with 1 M HCl and heating at 45° C. and then filtered with 0.2 micron NALGENE 13 mm Syringe Filters. Drug concentration in the solution was detected by HPLC. […]
The liposome-drug mixture was incubated with occasional agitation for 30 minutes at 65° C. The incubation mixture was quickly cooled down and incubated for 10 minutes at 0° C., then allowed to attain ambient temperature. Un-encapsulated drug was removed by gel chromatography on Sephadex G-25 (Amersham Pharmacia) eluted with HBS-6.5 buffer (5 mM 2-(4-(2-hydroxyethyl)-piperazino)-ethylsulfonic acid (HEPES), 144 mM NaCl, pH 6.5). Liposome fractions eluted in the void volume were combined, sterilized by 0.2 micron filtration, and stored at 4-6° C. before use. The liposomes were characterized by lipid concentration, drug concentration, and particle size (Table 2).

ATR/ATRIP(h) = ATR/ATRIP(h) (Homo sapiens (Human), UniProt Q13535); assay: Eurofins ATR/ATRIP HTRF assay, p53 Ser15 phosphorylation; format: biochemical; set-up: key to Top / Bottom: % of DMSO positive control activity; details: ATP 10 μM; for Hill: four parameter logistic fit; for Bottom / Top: four parameter logistic fit of % control activity
ATR/ATRIP(h), sequence (Q13535 whole entry): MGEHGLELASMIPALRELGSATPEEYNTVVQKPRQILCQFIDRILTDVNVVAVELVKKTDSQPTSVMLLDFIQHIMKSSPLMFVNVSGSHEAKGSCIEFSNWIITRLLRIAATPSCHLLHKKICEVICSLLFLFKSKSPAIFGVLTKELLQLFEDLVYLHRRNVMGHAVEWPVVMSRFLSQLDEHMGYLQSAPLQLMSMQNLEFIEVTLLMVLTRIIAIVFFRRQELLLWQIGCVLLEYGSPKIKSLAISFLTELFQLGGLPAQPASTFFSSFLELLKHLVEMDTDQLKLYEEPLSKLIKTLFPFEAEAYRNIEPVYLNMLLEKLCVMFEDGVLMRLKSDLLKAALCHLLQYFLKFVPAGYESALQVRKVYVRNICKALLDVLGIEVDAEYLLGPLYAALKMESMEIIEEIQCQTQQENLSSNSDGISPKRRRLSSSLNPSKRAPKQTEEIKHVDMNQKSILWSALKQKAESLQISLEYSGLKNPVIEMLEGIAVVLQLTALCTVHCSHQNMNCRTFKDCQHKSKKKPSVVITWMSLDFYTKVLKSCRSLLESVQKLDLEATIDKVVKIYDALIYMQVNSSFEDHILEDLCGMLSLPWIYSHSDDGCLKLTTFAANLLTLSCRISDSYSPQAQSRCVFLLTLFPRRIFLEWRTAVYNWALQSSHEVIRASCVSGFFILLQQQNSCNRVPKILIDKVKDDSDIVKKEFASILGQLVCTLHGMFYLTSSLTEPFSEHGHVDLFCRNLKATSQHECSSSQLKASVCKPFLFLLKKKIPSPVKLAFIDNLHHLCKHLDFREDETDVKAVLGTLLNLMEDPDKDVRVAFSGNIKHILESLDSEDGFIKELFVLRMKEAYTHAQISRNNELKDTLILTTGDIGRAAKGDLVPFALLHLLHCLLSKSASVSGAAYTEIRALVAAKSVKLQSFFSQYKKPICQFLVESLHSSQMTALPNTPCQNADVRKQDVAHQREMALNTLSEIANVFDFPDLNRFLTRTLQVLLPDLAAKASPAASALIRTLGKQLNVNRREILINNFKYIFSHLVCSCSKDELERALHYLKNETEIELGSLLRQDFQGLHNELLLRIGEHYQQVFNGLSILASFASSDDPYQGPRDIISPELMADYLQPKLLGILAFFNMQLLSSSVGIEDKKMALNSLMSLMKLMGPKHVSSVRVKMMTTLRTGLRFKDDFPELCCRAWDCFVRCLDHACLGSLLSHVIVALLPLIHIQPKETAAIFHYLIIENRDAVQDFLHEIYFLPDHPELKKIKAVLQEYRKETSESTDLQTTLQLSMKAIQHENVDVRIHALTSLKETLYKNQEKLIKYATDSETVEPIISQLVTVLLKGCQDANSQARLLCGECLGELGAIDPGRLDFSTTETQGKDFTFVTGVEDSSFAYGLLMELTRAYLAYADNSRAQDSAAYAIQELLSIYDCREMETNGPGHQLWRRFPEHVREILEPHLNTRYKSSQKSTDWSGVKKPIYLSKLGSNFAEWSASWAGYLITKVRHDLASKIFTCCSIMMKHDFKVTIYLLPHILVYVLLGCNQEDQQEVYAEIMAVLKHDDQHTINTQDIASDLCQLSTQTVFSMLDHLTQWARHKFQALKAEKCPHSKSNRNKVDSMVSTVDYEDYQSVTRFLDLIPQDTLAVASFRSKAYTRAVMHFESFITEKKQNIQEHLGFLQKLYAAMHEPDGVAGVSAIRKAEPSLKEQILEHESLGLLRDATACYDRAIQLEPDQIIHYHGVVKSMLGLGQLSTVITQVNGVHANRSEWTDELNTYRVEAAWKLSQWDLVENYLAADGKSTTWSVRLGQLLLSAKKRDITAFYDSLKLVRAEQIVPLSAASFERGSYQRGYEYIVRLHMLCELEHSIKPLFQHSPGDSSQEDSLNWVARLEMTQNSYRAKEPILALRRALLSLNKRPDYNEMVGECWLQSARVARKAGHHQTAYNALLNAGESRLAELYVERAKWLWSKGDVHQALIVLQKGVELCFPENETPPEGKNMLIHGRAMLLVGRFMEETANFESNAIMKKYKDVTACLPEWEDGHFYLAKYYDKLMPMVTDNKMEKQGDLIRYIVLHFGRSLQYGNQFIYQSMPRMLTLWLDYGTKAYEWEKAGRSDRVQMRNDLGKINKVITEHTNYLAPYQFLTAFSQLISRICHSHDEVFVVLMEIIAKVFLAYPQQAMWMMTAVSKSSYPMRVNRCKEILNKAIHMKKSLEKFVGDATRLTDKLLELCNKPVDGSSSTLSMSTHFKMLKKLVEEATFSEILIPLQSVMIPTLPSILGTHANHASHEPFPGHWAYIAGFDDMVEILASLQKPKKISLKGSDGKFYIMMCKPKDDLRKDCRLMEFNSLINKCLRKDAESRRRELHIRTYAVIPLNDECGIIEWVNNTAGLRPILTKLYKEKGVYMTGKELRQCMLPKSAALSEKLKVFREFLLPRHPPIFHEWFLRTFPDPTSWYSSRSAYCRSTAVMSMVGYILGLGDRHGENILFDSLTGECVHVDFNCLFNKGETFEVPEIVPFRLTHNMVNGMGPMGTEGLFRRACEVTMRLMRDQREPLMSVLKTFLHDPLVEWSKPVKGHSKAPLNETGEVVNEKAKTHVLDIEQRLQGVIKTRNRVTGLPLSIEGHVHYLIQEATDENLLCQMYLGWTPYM
ATR/ATRIP(h), sequence (Q8WXE1 whole entry partner): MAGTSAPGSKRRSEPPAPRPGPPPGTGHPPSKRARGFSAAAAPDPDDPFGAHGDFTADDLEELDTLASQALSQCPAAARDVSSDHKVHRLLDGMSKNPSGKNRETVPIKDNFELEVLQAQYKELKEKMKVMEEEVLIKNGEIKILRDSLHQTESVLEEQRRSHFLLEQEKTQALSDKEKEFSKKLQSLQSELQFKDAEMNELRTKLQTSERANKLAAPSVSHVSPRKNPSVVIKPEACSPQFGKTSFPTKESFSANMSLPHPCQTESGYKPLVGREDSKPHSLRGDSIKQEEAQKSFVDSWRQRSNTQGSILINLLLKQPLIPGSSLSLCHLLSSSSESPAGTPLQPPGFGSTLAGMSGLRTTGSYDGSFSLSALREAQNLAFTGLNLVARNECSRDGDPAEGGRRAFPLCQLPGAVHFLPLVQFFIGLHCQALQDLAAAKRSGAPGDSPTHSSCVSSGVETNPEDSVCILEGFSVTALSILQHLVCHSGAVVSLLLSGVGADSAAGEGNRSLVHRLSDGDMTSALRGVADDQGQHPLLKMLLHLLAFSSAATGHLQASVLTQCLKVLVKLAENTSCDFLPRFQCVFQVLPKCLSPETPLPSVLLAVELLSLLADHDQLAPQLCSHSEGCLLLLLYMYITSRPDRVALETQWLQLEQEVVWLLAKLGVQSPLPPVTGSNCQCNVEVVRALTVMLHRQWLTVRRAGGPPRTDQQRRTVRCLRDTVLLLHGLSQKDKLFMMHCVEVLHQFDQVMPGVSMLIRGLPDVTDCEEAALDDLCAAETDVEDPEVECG
Experimental: An EC50 determination was conducted for the supplied set of compounds against the kinase ATR/ATRIP(h), using a linear enzyme concentration in the Eurofins ATR/ATRIP HTRF assay using GST tagged full length p53 as the substrate.
ATR/ATRIP phosphorylation of p53 on Ser15 was measured via formation of an energy transfer complex consisting of a Europium-labelled anti-phospho Ser15 p53 antibody and an anti-GST-d2 antibody. All data points were performed in duplicate with DMSO controls and EDTA blanks.
ATR/ATRIP(h) was pre-diluted in 25 mM HEPES pH 8.0, 0.01% Brij-35, 1% Glycerol, 5 mM DTT, 1 mg/mL BSA and assayed in 25 mM HEPES pH 8.0, 0.01% Brij-35, 1% Glycerol, 10 mM MnCl2 using 30 nM GST, cMyc p53-(hu,FL) as the substrate. The reaction was initiated with the addition of ATP to a final concentration of 10 μM.
The individual replicates were expressed in terms of the % of the DMSO positive control activity. The mean activity (% control) of each inhibitor concentration was plotted against the inhibitor concentration, and EC50 values were determined using […] PRISM.
The data expressed as % control activity were plotted against inhibitor concentration, and fitted to a four parameter logistic using […] PRISM. Graphs for each compound are shown alongside the data in the accompanying Excel report.

ATM(h) = ATM(h) (Homo sapiens (Human), UniProt Q13315); assay: ATM activity, […] KINASEPROFILER; format: biochemical; details: estimated IC50
Text: Estimated IC50 values are as follows (obtained using […] KINASEPROFILER): […]

[2] = test system: total and phospho-ATR (S428), phospho-CHK1 (S317 and S345) in DMS-114 cells; assay: Western blot of total and phospho-ATR, phospho-CHK1 in DMS-114 cells; format: cell-based
Experimental: Whole cell protein lysates were generated after 1, 3, 6 and 24 hours using a 2% SDS containing cell lysis buffer and stored at −80° C. until all samples were collected and run together at the same time for the WesternBlot analysis. The following proteins and phosphoproteins of interest were detected by antibodies purchased from Cell Signaling Technology (see methods and materials part below): total and phospho-ATR (S428), phospho-CHK1 (S317 and S345), γH2AX, beta-actin.
All target and phospho-specific antibodies were purchased from Cell Signaling and/or Epitomics and were used at 1:1000 dilutions. A list of all antibodies is available in Table 6. Standard antibody based Western blot and immunohistochemistry protocols were used. Briefly, 2% SDS based cell lysis buffer was used to collect whole cell lysate for Western Blotting. Secondary antibodies and staining protocols were purchased and followed regarding LiCor Biosciences and/or BD Bioscience.
Cells were grown and treated in a 6 cm dish scale. To harvest cells, medium was removed and quickly replaced by ice cold PBS. PBS was then replaced with 250 μL of 2% SDS lysis buffer. After five minutes of incubation, the lysed cells were scraped off and loaded onto a cell lysate homogenizer microcentrifuge spin-column (QIAshredder, Qiagen, Cat.-Nr. 79656). The filtrate was then loaded onto a 0.2 μm centrifugal filter column (Nanosep MF 0.2_m, Pall, Cat.-Nr. ODM02C34). The lysates were then stored at −80° C.

U2OS cells = assay: Cell death and growth assay, U2OS cells; format: cell-based
Experimental: U20S and all other cells were grown in (RPMI) supplemented with 10% fetal bovine serum (FBS) and antibiotics. Imaging and time-lapse compatible NucLight red cell lines were generated as recommend by Essen Bioscience Inc. using lentiviral particles, infection and puromycin selection protocols.
The results were compared back to a prediction of cell growth and death with the combination of the two compounds (FIG. 18A).
In all cases, relative cell proliferation is reduced with the combinations compared to the drugs alone (FIG. 21B-C).

NCI-H520 cells = assay: Cell number over time, NCI-H520 cells; format: cell-based; details: 1 μM in combination with SN38 0.2 μM
NCI-H596 cells = assay: Cell number over time, NCI-H596 cells; format: cell-based; details: 1 μM in combination with SN38 0.2 μM
MS-751 cells = assay: In vitro growth assay, MS-751 cells; format: cell-based; details: in combination with SN38
SUM149 cells = assay: Cell cycle stage profile, SUM149 cells; format: cell-based; details: 24 hours after addition of SN38 and ATR inhibitor

Compound | pKa (pKa) | loading efficacy ([1]; Compound 1: at drug to lipid ratio higher than 400 g/mol) | Loading efficiency (%) [1] | Drug/lipid ratio after loading [1] | Drug/lipid ratio after loading (loadability) ([1]; drug/lipid ratio before loading 600-800) | Liposome size, (mean ± SD) nm [1] | EC50 (ATR/ATRIP(h)) | Hill (ATR/ATRIP(h)) | Bottom (ATR/ATRIP(h)) | Top (ATR/ATRIP(h)) | IC50 (ATM(h)) | phosphorylation signal of CHK1 (S317 and S345) induced by Gemcitabine ([2]; ATR inhibitor 1 μM added to Gemcitabine 16 nM) | total and phospho-ATR signal ([2]; ATR inhibitor 1 μM, alone or with Gemcitabine 16 nM, up to 24 hrs) | cell numbers over time vs either agent in isolation (U2OS cells; 1 μM in combination with SN38 0.2 μM) | cell death vs either compound alone (U2OS cells; Compound A (1 μM) combined with Gemcitabine (0.04 μM)) | cell numbers over time vs either agent in isolation (NCI-H520 cells) | cell numbers over time vs either agent in isolation (NCI-H596 cells) | cell number over time vs either compound alone (MS-751 cells) | cell cycle stage profile vs controls (SUM149 cells) | phospho-CHK1 (S317 and S345) signaling ([2]; Gemcitabine 16 nM alone, over 24 hrs)
CN1CCN(CCS(=O)(=O)c2ccc(-c3cnc(N)c(C(=O)Nc4ccccc4)n3)cc2)CC1 [Compound 3, 3-amino-6-(4-((2-(4-methylpiperazin-1-yl)ethyl)sulfonyl)phenyl)-N-phenylpyrazine-2-carboxamide] | 7.73 | – | 97 ± 5% | 628 ± 6 | – | 120 ± 27 nm | 196 nM | −0.776 | −3 | 98 | > 10000 nM | – | – | – | – | – | – | – | – | –
CCN(CC)C1CCN(CCS(=O)(=O)c2ccc(-c3cnc(N)c(C(=O)Nc4ccccc4)n3)cc2)CC1 [Compound 6, 3-amino-6-(4-((2-(4-(diethylamino)piperidin-1 yl)ethyl)sulfonyl)phenyl)-N-phenylpyrazine-2-carboxamide] | 9.81 | – | 74 ± 0.3% | 550 ± 64 | – | 119 ± 28 nm | 471 nM | −0.768 | −2 | 101 | > 10000 nM | – | – | – | – | – | – | – | – | –
CNCc1ccc(-c2cc(-c3nc(-c4ccc(S(=O)(=O)C(C)C)cc4)cnc3N)on2)cc1 [Compound A] | – | – | – | – | – | 121 ± 26 nm | – | – | – | – | 42 nM | abrogates the phosphorylation signal of CHK1 | strongly reduced | more effective at maintaining or reducing cell numbers over time | better at promoting cell death | more effective at maintaining or reducing cell numbers over time | more effective at maintaining or reducing cell numbers over time | reduction in cell number over time | larger percentage of cells are arrested in G2 phase | –
Nc1ccn([C@@H]2O[C@H](CO)[C@@H](O)C2(F)F)c(=O)n1 [Gemcitabine] | – | – | – | – | – | – | – | – | – | – | – | – | – | – | – | – | – | – | – | significantly increased

More lines, main results first:

pKa (pKa) | loading efficacy ([1]; Compound 1: at drug to lipid ratio higher than 400 g/mol) | Loading efficiency (%) [1] | Drug/lipid ratio after loading [1] | Drug/lipid ratio after loading (loadability) ([1]; drug/lipid ratio before loading 600-800) | Liposome size, (mean ± SD) nm [1] | EC50 (ATR/ATRIP(h)) | Hill (ATR/ATRIP(h)) | Bottom (ATR/ATRIP(h)) | Top (ATR/ATRIP(h)) | IC50 (ATM(h)) | Compound | phosphorylation signal of CHK1 (S317 and S345) induced by Gemcitabine ([2]; ATR inhibitor 1 μM added to Gemcitabine 16 nM) | total and phospho-ATR signal ([2]; ATR inhibitor 1 μM, alone or with Gemcitabine 16 nM, up to 24 hrs) | cell numbers over time vs either agent in isolation (U2OS cells; 1 μM in combination with SN38 0.2 μM) | cell death vs either compound alone (U2OS cells; Compound A (1 μM) combined with Gemcitabine (0.04 μM)) | cell numbers over time vs either agent in isolation (NCI-H520 cells) | cell numbers over time vs either agent in isolation (NCI-H596 cells) | cell number over time vs either compound alone (MS-751 cells) | cell cycle stage profile vs controls (SUM149 cells) | phospho-CHK1 (S317 and S345) signaling ([2]; Gemcitabine 16 nM alone, over 24 hrs)
7.04 | formed aggregates | 98% | 369 | Not loadable. Formed aggregates | 122 ± 24 nm | 49.6 nM | −0.772 | −1 | 95 | 3860 nM | CC(CN(C)C)S(=O)(=O)c1ccc(-c2cnc(N)c(C(=O)Nc3ccccc3)n2)cc1 (stereo not shown) [Compound 1, 3-amino-6-(4-((1-(dimethylamino)propan-2-yl)sulfonyl)phenyl)-N-phenylpyrazine-2-carboxamide] | – | – | – | – | – | – | – | – | –
7.46 | – | 100 ± 5% | 639 ± 22 | – | 130 ± 34 nm | 140 nM | −0.911 | 1 | 94 | 4820 nM | CCN(CC)CCS(=O)(=O)c1ccc(-c2cnc(N)c(C(=O)Nc3ccccc3)n2)cc1 [Compound 2, 3-amino-6-(4-((2-(diethylamino)ethyl)sulfonyl)phenyl)-N phenylpyrazine-2-carboxamide] | – | – | – | – | – | – | – | – | –
8.36 | – | – | – | – | – | 353 nM | – | – | – | 6870 nM | CN(C)CCNS(=O)(=O)c1ccc(-c2cnc(N)c(C(=O)Nc3ccccc3)n2)cc1 [Compound 4, 3-amino-6-(4-(((2-(dimethylamino)ethyl)-λ^2-azanyl)sulfonyl)phenyl)-N-phenylpyrazine-2-carboxamide] | – | – | – | – | – | – | – | – | –
